Reference: patent publication US8916570B2 (The United States of America, as represented by the …, priority 2008, dated 2014)
Read-outs that look alike come from different tables or passages of the source. Marks after values point to notes of the source that are not given here.

Tests used:
hA1AR = biological target: T1, hA1AR (Homo sapiens, UniProt P30542); test: Binding at hA1AR, CHO membranes (Example 7); conditions: read-out: % inhibition hA1
T1 construct: expressed in transfected cells; host or cells: CHO
T1 sequence (P30542 1-326): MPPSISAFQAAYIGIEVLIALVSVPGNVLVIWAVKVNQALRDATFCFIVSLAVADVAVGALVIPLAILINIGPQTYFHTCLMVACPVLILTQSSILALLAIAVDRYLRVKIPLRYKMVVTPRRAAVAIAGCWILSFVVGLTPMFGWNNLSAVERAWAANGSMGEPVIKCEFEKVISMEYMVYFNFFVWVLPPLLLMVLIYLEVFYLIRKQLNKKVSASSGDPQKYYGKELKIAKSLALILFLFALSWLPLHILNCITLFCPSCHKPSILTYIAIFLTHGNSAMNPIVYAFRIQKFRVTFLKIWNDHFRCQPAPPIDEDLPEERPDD

mA3AR = biological target: T2, mA3AR (Mus musculus, UniProt Q61618); test: Competition binding at mA3AR, HEK293 membranes (Example 8); conditions: read-out: Affinity (Ki, nM) mA3
T2 construct: expressed in transfected cells
T2 sequence (Q61618 1-319): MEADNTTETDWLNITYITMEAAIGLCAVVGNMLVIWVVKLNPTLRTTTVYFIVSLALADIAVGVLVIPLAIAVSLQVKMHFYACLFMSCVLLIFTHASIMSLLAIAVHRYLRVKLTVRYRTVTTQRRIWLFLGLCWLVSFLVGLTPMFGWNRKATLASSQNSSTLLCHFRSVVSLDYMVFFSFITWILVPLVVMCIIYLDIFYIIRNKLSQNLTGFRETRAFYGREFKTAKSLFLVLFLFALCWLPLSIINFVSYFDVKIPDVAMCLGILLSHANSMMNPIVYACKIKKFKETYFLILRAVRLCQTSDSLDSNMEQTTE

mA1AR = biological target: T3, mA1AR (Mus musculus, UniProt Q60612); test: Competition binding at mA1AR, HEK293 membranes (Example 8); conditions: percent in parentheses, concentration not given
T3 construct: expressed in transfected cells
T3 sequence (Q60612 1-326): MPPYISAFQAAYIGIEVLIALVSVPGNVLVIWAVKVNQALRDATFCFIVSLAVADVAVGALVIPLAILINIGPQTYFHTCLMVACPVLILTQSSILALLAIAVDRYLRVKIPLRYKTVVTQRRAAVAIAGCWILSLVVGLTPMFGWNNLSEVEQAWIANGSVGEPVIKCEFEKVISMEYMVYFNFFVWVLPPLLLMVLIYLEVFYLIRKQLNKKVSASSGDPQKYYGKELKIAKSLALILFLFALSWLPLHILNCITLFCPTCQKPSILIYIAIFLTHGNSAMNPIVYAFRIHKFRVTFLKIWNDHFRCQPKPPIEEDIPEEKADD

hA2AAR [1] = biological target: T4, hA2AAR (Homo sapiens, UniProt P29274); test: Binding at hA2AAR, HEK-293 membranes (Example 7); conditions: read-out: % inhibition hA2A
T4 construct: expressed in transfected cells
T4 sequence (P29274 whole entry): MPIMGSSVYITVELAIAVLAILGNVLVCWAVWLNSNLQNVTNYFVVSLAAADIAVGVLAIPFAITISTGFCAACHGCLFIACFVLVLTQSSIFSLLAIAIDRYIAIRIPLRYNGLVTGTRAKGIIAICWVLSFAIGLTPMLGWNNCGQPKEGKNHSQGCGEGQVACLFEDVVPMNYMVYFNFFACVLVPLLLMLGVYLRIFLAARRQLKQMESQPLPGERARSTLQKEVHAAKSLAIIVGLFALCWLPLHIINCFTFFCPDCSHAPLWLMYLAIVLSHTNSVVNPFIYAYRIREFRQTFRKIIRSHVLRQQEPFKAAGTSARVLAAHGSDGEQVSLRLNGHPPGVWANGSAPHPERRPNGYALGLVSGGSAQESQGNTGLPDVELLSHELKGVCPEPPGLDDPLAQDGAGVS
Procedure: After harvesting, cells were homogenized and suspended in PBS.
Nonspecific binding was determined using a final concentration of 10 μM 51 diluted with the buffer.

hA3AR = biological target: T5, hA3AR (Homo sapiens, UniProt P0DMS8); test: Binding at hA3AR, CHO membranes (Example 7); conditions: read-out: Affinity (Ki, nM) hA3
T5 construct: expressed in transfected cells; host or cells: CHO
T5 sequence (P0DMS8 1-318): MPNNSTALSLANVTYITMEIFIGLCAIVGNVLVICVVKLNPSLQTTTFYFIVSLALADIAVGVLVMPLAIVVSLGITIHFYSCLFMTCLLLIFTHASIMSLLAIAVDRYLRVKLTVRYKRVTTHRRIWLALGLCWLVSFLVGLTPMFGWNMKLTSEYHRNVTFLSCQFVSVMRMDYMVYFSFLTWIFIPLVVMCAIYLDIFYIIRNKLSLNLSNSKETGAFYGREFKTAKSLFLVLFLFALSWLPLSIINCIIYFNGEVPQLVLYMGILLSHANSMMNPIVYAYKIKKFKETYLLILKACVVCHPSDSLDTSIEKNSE

[2] = biological target: T6, human A1 adenosine receptor (Homo sapiens, UniProt P30542); test: Radioligand binding, human A1 AR, CHO membranes (Table 1); conditions: for A1 % inhib.: species H (human), percent in parentheses, concentration not marked
T6 sequence (P30542 1-326): T1 sequence (P30542 1-326)

[3] = biological target: T7, human A3 adenosine receptor (Homo sapiens, UniProt P0DMS8); test: [125I]I-AB-MECA binding, human A3 AR, CHO membranes (Table 1); conditions: for Ki: A3 Ki, species H (human)
T7 sequence (P0DMS8 1-318): T5 sequence (P0DMS8 1-318)

human A3AR = biological target: T8, human A3AR (Homo sapiens, UniProt P0DMS8); test: Inhibition of forskolin-stimulated cyclic AMP production in AR transfected CHO cells (Table 1); type: cell-based; conditions: CHO; read-out: % Efficacy at the human A3 AR
T8 construct: expressed in transfected cells; host or cells: CHO
T8 sequence (P0DMS8 1-318): T5 sequence (P0DMS8 1-318)

[4] = biological target: T9, human A2A adenosine receptor (Homo sapiens, UniProt P29274); test: Radioligand binding, human A2A AR (Table 1)
T9 sequence (P29274 whole entry): as the sequence (P29274 whole entry) above

hA2AAR [5] = biological target: T4, hA2AAR; conditions: inhibition of radioligand binding at 10 μM; values from the literature; cited from earlier work
[6] = biological target: mouse A2A adenosine receptor (Mus musculus, UniProt Q60613); test: Competition radioligand binding, mouse A2A AR, HEK293 membranes (Table 1)
mouse A2A adenosine receptor, sequence (Q60613 whole entry): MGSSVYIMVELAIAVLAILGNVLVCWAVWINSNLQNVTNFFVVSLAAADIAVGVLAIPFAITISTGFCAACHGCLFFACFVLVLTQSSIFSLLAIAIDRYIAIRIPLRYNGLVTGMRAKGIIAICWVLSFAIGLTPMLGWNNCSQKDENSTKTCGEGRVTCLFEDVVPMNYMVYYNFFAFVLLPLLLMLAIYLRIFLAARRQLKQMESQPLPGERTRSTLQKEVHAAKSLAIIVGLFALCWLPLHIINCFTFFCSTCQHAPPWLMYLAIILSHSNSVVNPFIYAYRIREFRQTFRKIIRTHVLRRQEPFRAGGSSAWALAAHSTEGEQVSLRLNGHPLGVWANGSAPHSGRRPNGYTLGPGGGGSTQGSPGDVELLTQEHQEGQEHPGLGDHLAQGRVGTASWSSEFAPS

mA2AAR = biological target: T10, mA2AAR (Mus musculus, UniProt Q60613); conditions: values from Melman et al.; concentration not defined (mark ^1); cited from earlier work
T10 construct: expressed in transfected cells
T10 sequence (Q60613 whole entry): as above

[7] = biological target: T9, human A2A adenosine receptor; parameters: expressed in transfected cells; conditions: species H (human); percent inhibition at 10 μM; data from Tchilibon et al.; cited from earlier work

Row | SMILES | inhibition at 10 µM (hA1AR) [%] | Ki (mA3AR) [nM] | % inhibition mA1 (mA1AR) | inhibition at 10 µM (hA2AAR [1]) [%] | Ki (hA3AR) [nM] | Emax at 10 µM (human A3AR) [%] | further results
1 | CNC(=O)[C@@]12C[C@@H]1[C@@H](n1cnc3c(NC)nc(C#Cc4ccccc4Cl)nc31)[C@H](O)[C@@H]2O [Compound 314, (1S,2R,3S,4R,5S)-4-(2-((2-Chlorophenyl)ethynyl)-6-(methylamino)-9H-purin-9-yl)-2,3-dihydroxy-N-methylbicyclo[3.1.0]hexane-1-carboxamide] | 22 | 55 | (45%) | 30 | 0.58 ± 0.04 | – | –
2 | CNC(=O)C12CC1C(n1cnc3c(NCc4cccc(Cl)c4)nc(C#CCCC(=O)OC)nc31)C(O)C2O (stereo not shown) [Compound 35] | – | – | – | – | – | 74.4 ± 5.1 | A1 % inhib. [2]: (19 ± 3%); Ki [3]: 0.0055 ± 0.0003 µM
3 | CNC(=O)C12CC1C(n1cnc3c(NC4CCCC4)nc(Cl)nc31)C(O)C2O (stereo not shown) [Compound 32] | – | – | – | – | – | 101 | Ki [2]: 0.0183 ± 0.0063 µM; Ki [4]: 3.25 ± 0.3 µM
4 | CCCC#Cc1nc(NCc2cccc(Cl)c2)c2ncn([C@@H]3[C@H](O)[C@H](O)[C@]4(C(=O)NC)C[C@H]34)c2n1 [Compound 5, (1′S,2′R,3′S,4′S,5′S)-4′-[6-(3-Chlorobenzylamino)-2-(1-pentynyl)-9-yl]-2′,3′-dihydroxybicyclo[3.1.0]hexane-1′-carboxylic acid N-methylamide] | – | – | – | – | – | – | A2A % inhib. ([4]; species H (human), percent inhibition at 10 μM): (80%)^f; % inhibition hA2A (hA2AAR [5]): (80%); A2A % inhib. ([6]; species M (mouse), percent inhibition at 100 μM): (42%)^i; % inhibition mA2A (mA2AAR): (42%)^1
5 | CNC(=O)C12CC1C(n1cnc3c(NCc4cccc(Cl)c4)nc(C#CCCC(=O)NCCNC(=O)CCCCCNC(=O)CCCCC4SCC5NC(=O)NC54)nc31)C(O)C2O (stereo not drawn) [Compound 43, (1′S,2′R,3′S,4′S,5′S)-4′-[6-(3-Chlorobenzylamino)-2-(N-biotinyl {5-aminopentanyl}(β-aminoethylaminocarbonyl)-1-butynyl)-9-yl]-2′,3′-dihydroxybicyclo[3.1.0]hexane-1′-carboxylic acid N-methylamide] | – | – | – | – | – | 106 ± 17.7 | A1 % inhib. [2]: (8 ± 4%); Ki [3]: 0.0577 ± 0.0162 µM
6 | CNC(=O)C12CC1C(n1cnc3c(NCc4cccc(Cl)c4)nc(C#CCCCCC(=O)OC)nc31)C(O)C2O (stereo not shown) [Compound 36] | – | – | – | – | – | 90 ± 6.2 | A1 % inhib. [2]: (21 ± 8%); Ki [4]: 3.54 ± 1.37 µM; Ki [3]: 0.0111 ± 0.0023 µM
7 | CNC(=O)C12CC1C(n1cnc3c(NCc4cccc(Cl)c4)nc(C#CCCC(=O)NCCCCN)nc31)C(O)C2O (stereo not drawn) [Compound 40, (1′S, 2′R, 3′S, 4′S, 5′S)-4′-[6-(3-Chlorobenzylamino)-2-(4-(β-aminobutylaminocarbonyl)-1-butynyl)-9-yl]-2′,3′-dihydroxybicyclo[3.1.0]hexane-1′-carboxylic acid N-methylamide] | – | – | – | – | – | 102 ± 13 | Ki [4]: 0.766 ± 0.109 µM; Ki [3]: 0.0021 ± 0.0004 µM; Selectivity A1/A3 ([3]; human): up to 1900
8 | CNC(=O)[C@@]12C[C@@H]1[C@@H](n1cnc3c(NC)nc(C#Cc4ccc(F)cc4)nc31)[C@H](O)[C@@H]2O [Compound 313, (1S,2R,3S,4R,5S)-4-(2-((4-Fluorophenyl)ethynyl)-6-(methylamino)-9H-purin-9-yl)-2,3-dihydroxy-N-methylbicyclo[3.1.0]hexane-1-carboxamide] | 27 | 66 | (25%) | 19 | 0.53 ± 0.09 | – | –
9 | CNC(=O)C12CC1C(n1cnc3c(NCc4cccc(C#CCO)c4)nc(Cl)nc31)C(O)C2O (stereo not shown) [Compound 16] | – | – | – | – | – | – | inhibition at 100 µM ([6]; read-out: A2A % inhib.): 11%; A2A % inhib. [7]: (56%)^f

The next lines start with results.

Row | inhibition at 10 µM (hA1AR) [%] | Ki (mA3AR) [nM] | % inhibition mA1 (mA1AR) | inhibition at 10 µM (hA2AAR [1]) [%] | Ki (hA3AR) [nM] | Emax at 10 µM (human A3AR) [%] | SMILES | further results
10 | 18 | 16 | (41%) | 27 | – | – | CNC(=O)[C@@]12C[C@@H]1[C@@H](n1cnc3c(NCc4cccc(Cl)c4)nc(C#Cc4ccccc4)nc31)[C@H](O)[C@@H]2O [Compound 327, (1S,2R,3S,4R,5S)-4-(6-(3-Chlorobenzylamino)-2-(phenylethynyl)-9H-purin-9-yl)-2,3-dihydroxy-N-methylbicyclo[3.1.0]hexane-1-carboxamide] | –
11 | 19 | 7.5 | (39%) | 42 | – | – | CNC(=O)[C@@]12C[C@@H]1[C@@H](n1cnc3c(NCc4cccc(Cl)c4)nc(C#Cc4ccc(F)cc4)nc31)[C@H](O)[C@@H]2O [Compound 328, (1S,2R,3S,4R,5S)-4-(6-(3-Chlorobenzylamino)-2-((4-fluorophenyl)ethynyl)-9H-purin-9-yl)-2,3-dihydroxy-N-methylbicyclo[3.1.0]hexane-1-carboxamide] | –
12 | – | 22 | (28%) | 0 | 3.06 ± 1.35 | – | CNC(=O)[C@@]12C[C@@H]1[C@@H](n1cnc3c(NCc4cccc(Cl)c4)nc(C#Cc4ccc(-c5ccccc5)cc4)nc31)[C@H](O)[C@@H]2O [Compound 335, (1S,2R,3S,4R,5S)-4-(2-(Biphenyl-4-ylethynyl)-6-(3-chlorobenzylamino)-9H-purin-9-yl)-2,3-dihydroxy-N-methylbicyclo[3.1.0]hexane-1-carboxamide] | –
13 | 2 | 17 | (93%) | 44 | 2.27 ± 0.7 | – | CNC(=O)[C@@]12C[C@@H]1[C@@H](n1cnc3c(NCc4cccc(Cl)c4)nc(C#Cc4ccc(N)cc4)nc31)[C@H](O)[C@@H]2O [Compound 332a, (1S,2R,3S,4R,5S)-4-(2-((4-Aminophenyl)ethynyl)-6-(3-chlorobenzylamino)-9H-purin-9-yl)-2,3-dihydroxy-N-methylbicyclo[3.1.0]hexane-1-carboxamide] | –
14 | 20 | 7.5 | (36%) | 52 | 1.92 ± 0.57 | – | CNC(=O)[C@@]12C[C@@H]1[C@@H](n1cnc3c(NCc4cccc(Cl)c4)nc(C#Cc4ccccc4Cl)nc31)[C@H](O)[C@@H]2O [Compound 329, (1S,2R,3S,4R,5S)-4-(6-(3-Chlorobenzylamino)-2-((2-chlorophenyl)ethynyl)-9H-purin-9-yl)-2,3-dihydroxy-N-methylbicyclo[3.1.0]hexane-1-carboxamide] | –
